The text below walks through data of ChEMBL document CHEMBL1201862, “PubChem BioAssay data set” (2004).

Calls of active or inactive are those of the source. Some results are limits rather than exact numbers.

Assay [1] can be described thus: HepG2 cell cytotoxicity, dose response, cytotoxicity control for non-replicating M. tuberculosis project (AID 489018). The conditions noted are these: Mycobacterium tuberculosis. The format is functional.
A short description of assay [2]: Fluorescence-based cell-based high throughput dose response assay for inhibitors of the interaction of nucleotide-binding oligomerization domain containing 2 (NOD2) and the receptor-interacting serine-threonine kinase 2 (RIPK2). In kind it is functional. The conditions noted are these: Homo sapiens.
The target in assay [3] is Female germline-specific tumor suppressor gld-1 (Caenorhabditis elegans, UniProt Q17339). As to the kind of experiment: inhibitors of GLD-1 binding to TGE RNA, dose response, biochemical, fluorescence polarization, C. elegans (AID 2802).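 Note: fluorescence polarization of labeled TGE RNA bound by purified gld-1 protein.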 In general terms: In fluorescence polarisation assays a small probe gives low polarisation when free and higher when bound to something large.

For another assay, the target named is T1, Streptokinase A (Streptococcus pyogenes serotype M1, UniProt P10520).
T1 sequence (P10520 whole entry): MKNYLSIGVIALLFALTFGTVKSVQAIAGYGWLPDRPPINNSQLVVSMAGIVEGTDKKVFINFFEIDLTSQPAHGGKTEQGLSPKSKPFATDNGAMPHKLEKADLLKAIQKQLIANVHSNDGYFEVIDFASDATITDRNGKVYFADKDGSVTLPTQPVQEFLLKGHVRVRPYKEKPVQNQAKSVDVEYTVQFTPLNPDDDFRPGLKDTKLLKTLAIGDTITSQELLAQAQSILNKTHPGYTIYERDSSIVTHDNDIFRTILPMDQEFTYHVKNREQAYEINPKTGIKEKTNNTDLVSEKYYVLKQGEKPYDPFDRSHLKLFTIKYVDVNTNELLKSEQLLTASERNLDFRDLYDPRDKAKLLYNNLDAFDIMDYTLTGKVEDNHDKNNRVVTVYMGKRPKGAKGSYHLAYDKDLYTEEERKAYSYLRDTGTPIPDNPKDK
As to the kind of experiment: S. pyogenes streptokinase expression inhibitors, potency, dose response, plasminogen activation absorbance, OD405 (AID 1914).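 Note: secreted streptokinase activity via plasminogen activation per viability signal from cell pellet.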 In kind it is functional, Streptococcus pyogenes M1 GAS.

Assay [4] can be described thus: Shn3 3'UTR reporter inhibitors, dose response, cell-based, Clone20 osteoblasts, firefly luciferase, cherry-picked (AID 624132).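 Note: firefly luciferase luminescence from reporter carrying the Shn3 3'UTR in osteoblasts.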 In kind it is functional.
Assay [5] is described as follows: HepG2 cell cytotoxicity, dose response, cytotoxicity control for Shn3 inhibitor project, CellTiter-Glo, cherry-picked (AID 624134). In kind it is functional, cell-based.
The nature of assay [6]: control 3'UTR Renilla luciferase suppression, dose response, counter-screen for Shn3 inhibitor project, cell-based, Clone20-Shn3RL, cherry-picked (AID 624133). The format is functional. On the technique in general: The purpose of a counterscreen is to sort out artefacts and off-target activity.
In assay [7] the target is T2, 1-phosphatidylinositol 4,5-bisphosphate phosphodiesterase beta-3 (Homo sapiens, UniProt Q01970).
T2 sequence (Q01970 whole entry): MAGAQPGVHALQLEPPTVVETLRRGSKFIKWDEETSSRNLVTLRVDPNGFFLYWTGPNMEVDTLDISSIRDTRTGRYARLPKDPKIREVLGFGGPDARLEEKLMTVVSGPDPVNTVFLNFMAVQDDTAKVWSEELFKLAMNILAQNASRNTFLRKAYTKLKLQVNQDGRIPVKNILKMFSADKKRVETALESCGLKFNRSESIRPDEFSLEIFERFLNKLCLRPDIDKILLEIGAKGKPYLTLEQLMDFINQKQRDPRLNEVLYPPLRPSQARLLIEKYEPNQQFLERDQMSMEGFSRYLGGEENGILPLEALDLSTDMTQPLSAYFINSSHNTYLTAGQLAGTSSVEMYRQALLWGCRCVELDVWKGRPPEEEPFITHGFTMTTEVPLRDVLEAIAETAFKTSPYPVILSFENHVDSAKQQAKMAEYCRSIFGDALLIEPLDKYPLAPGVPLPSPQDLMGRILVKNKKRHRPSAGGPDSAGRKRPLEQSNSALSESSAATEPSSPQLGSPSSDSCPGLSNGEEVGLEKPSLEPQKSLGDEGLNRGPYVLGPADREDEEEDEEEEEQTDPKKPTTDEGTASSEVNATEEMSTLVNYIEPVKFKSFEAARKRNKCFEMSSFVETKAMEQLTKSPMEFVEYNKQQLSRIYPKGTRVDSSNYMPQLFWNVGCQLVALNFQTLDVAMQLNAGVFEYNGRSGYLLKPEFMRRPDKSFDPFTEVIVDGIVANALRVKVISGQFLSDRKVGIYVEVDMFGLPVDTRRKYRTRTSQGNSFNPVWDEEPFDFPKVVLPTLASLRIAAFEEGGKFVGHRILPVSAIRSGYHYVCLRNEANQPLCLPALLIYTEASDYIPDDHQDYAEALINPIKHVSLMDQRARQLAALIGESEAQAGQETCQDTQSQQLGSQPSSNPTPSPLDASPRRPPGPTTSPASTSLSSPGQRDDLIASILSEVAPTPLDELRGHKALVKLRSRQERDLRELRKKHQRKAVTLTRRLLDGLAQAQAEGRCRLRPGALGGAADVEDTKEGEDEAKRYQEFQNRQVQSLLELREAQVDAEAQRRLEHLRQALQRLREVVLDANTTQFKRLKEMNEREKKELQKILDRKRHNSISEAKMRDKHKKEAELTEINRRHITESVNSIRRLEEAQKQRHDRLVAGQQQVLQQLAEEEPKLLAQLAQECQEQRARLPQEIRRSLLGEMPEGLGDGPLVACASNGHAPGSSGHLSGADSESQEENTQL
As to the kind of experiment: Fluorescence-based biochemical high throughput dose response assay to identify inhibitors of phospholipase C isozymes (PLC-B3).

The target in assay [8] is Serine/threonine-protein kinase 17A (Homo sapiens, UniProt Q9UEE5). The format is functional.
Assay [9] has as its target Mitogen-activated protein kinase 8 (Homo sapiens, UniProt P45983). The format is functional.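 Note: value comes from one member of a kinome-wide kinase profiling panel.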
Assay [10] concerns the target Serine/threonine-protein kinase N2 (Homo sapiens, UniProt Q16513). In kind it is functional.
Assay [11] addresses Mitogen-activated protein kinase kinase kinase kinase 2 (Homo sapiens, UniProt Q12851). In kind it is functional.
The target in assay [12] is MAP kinase-interacting serine/threonine-protein kinase 2 (Homo sapiens, UniProt Q9HBH9). In kind it is functional.
The target in assay [13] is G protein-coupled receptor kinase 5 (Homo sapiens, UniProt P34947). In words: Navigating the Kinome. Panel member name: GPRK5. The format is functional.
The next assay addresses Misshapen-like kinase 1 (Homo sapiens, UniProt Q8N4C8). In kind it is functional.
The next assay concerns the target Aurora kinase B (Homo sapiens, UniProt Q96GD4). The format is functional.
In assay [14] the target is Inhibitor of nuclear factor kappa-B kinase subunit epsilon (Homo sapiens, UniProt Q14164). In words: Navigating the Kinome. Panel member name: IKBKE. The format is functional.
Assay [15] has as its target Mitogen-activated protein kinase 10 (Homo sapiens, UniProt P53779). As to the kind of experiment: Navigating the Kinome. Panel member name: MAPK10. The format is functional.
Assay [16] concerns the target C-C chemokine receptor type 6 (Homo sapiens, UniProt P51684). In words: CCR6 receptor antagonists, dose response, cell-based, luminescent beta-arrestin readout (AID 504728). The format is functional.
Assay [17] concerns the target Ribosomal protein S6 kinase alpha-5 (Homo sapiens, UniProt O75582). In kind it is functional.
In assay [18] the target is Mitogen-activated protein kinase 13 (Homo sapiens, UniProt O15264). In kind it is functional.
Assay [19] addresses Platelet-derived growth factor receptor beta (Homo sapiens, UniProt P09619). The format is functional.

Sequence of Mitogen-activated protein kinase 13 (O15264 whole entry): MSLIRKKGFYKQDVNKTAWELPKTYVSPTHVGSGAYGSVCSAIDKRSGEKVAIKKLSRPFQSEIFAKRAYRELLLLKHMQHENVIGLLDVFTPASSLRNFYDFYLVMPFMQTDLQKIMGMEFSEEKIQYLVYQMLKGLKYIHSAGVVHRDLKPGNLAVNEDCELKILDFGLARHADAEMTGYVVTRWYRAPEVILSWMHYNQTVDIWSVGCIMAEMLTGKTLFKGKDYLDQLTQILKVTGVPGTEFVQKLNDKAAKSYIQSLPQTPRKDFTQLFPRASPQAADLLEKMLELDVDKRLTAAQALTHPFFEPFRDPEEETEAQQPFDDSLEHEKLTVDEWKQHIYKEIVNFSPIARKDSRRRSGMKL
Sequence of MAP kinase-interacting serine/threonine-protein kinase 2 (Q9HBH9 whole entry): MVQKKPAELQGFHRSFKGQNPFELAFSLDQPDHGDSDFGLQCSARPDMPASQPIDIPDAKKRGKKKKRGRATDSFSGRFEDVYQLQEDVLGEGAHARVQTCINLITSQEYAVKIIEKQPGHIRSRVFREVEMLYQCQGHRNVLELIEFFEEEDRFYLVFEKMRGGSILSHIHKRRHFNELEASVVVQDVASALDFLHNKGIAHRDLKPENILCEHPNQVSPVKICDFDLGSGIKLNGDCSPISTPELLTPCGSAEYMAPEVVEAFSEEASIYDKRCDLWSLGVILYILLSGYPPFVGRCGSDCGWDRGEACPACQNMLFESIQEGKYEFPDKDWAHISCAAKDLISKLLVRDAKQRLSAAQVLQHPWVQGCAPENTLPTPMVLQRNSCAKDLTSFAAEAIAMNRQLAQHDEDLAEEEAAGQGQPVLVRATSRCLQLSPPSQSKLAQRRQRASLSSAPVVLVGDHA
Sequence of Aurora kinase B (Q96GD4 whole entry): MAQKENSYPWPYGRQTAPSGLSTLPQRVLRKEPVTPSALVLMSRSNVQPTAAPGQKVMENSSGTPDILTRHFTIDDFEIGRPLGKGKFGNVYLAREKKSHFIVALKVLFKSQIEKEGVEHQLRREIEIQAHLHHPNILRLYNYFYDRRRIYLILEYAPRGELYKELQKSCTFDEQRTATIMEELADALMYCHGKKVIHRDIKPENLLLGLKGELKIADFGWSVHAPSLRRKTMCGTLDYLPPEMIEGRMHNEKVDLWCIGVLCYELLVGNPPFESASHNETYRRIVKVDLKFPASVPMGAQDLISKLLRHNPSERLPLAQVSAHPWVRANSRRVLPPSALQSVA
Sequence of Female germline-specific tumor suppressor gld-1 (Q17339 whole entry): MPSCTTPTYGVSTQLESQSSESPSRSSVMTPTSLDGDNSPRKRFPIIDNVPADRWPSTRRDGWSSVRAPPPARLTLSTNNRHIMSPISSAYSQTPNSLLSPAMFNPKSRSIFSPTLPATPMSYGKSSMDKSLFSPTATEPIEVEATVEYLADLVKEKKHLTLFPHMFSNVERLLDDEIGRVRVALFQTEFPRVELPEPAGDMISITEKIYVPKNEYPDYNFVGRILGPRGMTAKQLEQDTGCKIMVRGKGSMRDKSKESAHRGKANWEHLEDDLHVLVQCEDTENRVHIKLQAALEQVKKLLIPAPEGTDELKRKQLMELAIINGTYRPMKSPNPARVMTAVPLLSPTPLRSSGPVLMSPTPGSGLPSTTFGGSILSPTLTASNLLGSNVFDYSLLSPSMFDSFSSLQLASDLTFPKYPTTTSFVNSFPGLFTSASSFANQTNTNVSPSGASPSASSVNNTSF
Sequence of G protein-coupled receptor kinase 5 (P34947 whole entry): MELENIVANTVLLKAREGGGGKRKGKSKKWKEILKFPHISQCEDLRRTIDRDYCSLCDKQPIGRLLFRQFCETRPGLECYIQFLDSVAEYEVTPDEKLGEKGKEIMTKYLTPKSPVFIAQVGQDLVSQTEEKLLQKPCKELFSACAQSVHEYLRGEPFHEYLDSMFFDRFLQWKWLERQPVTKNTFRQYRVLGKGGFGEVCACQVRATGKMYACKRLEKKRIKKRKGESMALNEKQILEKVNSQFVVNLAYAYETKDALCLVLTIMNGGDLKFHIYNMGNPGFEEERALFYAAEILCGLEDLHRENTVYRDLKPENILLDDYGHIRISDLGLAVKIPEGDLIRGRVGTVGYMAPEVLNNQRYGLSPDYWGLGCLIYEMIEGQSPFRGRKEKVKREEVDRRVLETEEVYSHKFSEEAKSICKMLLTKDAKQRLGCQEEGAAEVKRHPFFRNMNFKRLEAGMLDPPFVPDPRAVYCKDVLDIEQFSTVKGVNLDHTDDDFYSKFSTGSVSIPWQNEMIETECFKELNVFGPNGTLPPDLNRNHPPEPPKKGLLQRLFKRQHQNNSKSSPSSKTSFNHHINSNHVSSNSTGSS
Sequence of Mitogen-activated protein kinase 10 (P53779 whole entry): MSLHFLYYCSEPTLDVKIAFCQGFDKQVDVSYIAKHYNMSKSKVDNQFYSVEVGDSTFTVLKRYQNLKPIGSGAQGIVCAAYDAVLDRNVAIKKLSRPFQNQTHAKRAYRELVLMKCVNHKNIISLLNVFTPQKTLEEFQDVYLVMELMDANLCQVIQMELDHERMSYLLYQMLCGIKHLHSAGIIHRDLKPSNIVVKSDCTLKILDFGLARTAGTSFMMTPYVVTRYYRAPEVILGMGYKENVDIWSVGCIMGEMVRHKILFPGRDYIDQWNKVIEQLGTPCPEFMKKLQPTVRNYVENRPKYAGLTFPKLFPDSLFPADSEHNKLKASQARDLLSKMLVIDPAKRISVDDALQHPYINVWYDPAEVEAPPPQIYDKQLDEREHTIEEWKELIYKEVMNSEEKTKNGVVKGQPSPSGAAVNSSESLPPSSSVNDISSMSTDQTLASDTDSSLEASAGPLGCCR
Sequence of Misshapen-like kinase 1 (Q8N4C8 whole entry): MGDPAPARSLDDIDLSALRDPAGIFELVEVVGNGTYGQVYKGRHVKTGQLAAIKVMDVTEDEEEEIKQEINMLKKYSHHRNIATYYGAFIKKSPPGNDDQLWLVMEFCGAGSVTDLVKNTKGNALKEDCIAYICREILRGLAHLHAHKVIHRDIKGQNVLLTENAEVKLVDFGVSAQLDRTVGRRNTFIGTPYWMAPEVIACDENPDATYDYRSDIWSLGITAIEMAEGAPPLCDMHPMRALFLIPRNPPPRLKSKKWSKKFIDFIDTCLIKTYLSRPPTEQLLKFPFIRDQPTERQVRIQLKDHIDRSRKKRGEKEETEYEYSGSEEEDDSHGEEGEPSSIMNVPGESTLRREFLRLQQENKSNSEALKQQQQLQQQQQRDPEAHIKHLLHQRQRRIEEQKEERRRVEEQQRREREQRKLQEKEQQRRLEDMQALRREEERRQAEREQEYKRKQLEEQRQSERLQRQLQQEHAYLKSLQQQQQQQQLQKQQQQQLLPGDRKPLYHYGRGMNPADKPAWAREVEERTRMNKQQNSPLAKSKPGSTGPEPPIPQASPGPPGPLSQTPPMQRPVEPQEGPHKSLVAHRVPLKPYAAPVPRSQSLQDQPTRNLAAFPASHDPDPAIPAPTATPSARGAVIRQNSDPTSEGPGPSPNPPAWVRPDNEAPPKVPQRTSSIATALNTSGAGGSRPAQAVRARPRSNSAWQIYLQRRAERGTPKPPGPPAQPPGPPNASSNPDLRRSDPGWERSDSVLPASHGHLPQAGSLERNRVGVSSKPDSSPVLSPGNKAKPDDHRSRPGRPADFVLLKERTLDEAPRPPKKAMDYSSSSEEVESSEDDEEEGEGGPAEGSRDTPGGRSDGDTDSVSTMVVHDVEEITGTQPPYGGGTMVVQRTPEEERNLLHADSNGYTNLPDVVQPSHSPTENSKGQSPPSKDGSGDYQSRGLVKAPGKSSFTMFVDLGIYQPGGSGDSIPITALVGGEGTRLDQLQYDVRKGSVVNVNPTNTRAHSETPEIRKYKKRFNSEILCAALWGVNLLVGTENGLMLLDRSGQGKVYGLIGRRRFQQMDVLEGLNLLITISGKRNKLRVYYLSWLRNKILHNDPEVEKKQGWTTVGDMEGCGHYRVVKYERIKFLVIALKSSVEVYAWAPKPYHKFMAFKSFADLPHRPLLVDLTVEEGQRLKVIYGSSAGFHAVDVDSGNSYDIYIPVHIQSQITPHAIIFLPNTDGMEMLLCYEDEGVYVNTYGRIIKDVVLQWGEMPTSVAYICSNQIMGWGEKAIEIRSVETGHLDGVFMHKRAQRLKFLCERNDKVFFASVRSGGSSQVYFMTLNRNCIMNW
Sequence of Mitogen-activated protein kinase kinase kinase kinase 2 (Q12851 whole entry): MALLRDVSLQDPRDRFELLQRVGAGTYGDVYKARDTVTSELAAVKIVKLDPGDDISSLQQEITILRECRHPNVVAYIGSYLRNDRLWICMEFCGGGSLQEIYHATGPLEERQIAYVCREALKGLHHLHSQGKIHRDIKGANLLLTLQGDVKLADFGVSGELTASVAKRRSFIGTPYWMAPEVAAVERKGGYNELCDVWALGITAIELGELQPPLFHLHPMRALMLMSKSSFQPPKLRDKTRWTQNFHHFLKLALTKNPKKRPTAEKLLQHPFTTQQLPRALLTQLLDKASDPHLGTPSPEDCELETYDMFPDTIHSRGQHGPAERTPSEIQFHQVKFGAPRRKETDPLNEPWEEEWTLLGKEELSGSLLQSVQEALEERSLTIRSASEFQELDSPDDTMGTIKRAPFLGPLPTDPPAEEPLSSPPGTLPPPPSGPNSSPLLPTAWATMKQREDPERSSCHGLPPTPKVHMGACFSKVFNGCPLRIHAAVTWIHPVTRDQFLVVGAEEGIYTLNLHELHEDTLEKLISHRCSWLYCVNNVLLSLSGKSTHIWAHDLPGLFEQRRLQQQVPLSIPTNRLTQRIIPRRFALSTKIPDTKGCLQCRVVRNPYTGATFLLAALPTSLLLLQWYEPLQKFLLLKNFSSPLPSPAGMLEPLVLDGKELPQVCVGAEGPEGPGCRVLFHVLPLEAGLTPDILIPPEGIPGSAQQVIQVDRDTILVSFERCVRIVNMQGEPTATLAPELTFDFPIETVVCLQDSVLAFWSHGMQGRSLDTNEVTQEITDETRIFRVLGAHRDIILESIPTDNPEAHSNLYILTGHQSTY

With `COC(=O)CCS(=O)(=O)c1nc(-c2ccccc2)cc(C(F)(F)F)n1`, the CC50 (commonly the concentration at which the toxic effect on the cells reaches its halfway point) in assay [1] is 19.4 µM (active). In addition, the IC50 (commonly the concentration that gives 50% inhibition) in assay [2] was 3.08 µM (active).

With `O=C(O)c1ccc2c3c(ncnc13)-c1ccccc1C2=O`, the half-maximal inhibitory concentration (IC50) in assay [3] was 3.51 µM (active). The EC50 (in general, the midpoint of the concentration-response curve) at Streptokinase A is 16 µM (active).

`CCOC(=O)c1c2c(n(Cc3ccccc3)c1C)C(=O)C(=O)c1ccccc1-2`: the AC50 (in general, the concentration at which the activity in the assay is half-maximal) in [4] was 2.3 µM (active); in [5], 6.74 µM (active); in assay [6] it was 5.03 µM (active). The IC50 in assay [7] is > 123 µM (inactive).

Take `Cc1ccc2nccc(NC(=O)Nc3cccc(C(F)(F)F)n3)c2c1`: the Ki (commonly a measure of affinity in units of concentration, obtained from inhibition or displacement) in [8] is > 3.98 µM (inactive); in assay [9] it was > 3.16 µM (inactive); in assay [10], > 7.94 µM (inactive); in assay [11], > 6.31 µM (inactive); in assay [12], > 10 µM (inactive); in [13] it was > 3.98 µM (inactive). Moreover, the Ki is 0.2 µM (active) on Misshapen-like kinase 1, 0.251 µM (active) on Aurora kinase B, > 3.16 µM (inactive) in [14] and > 3.16 µM (inactive) in assay [15].

With `Cc1c(/N=C2\C=CC(=O)c3ccccc32)c(=O)n(-c2ccccc2)n1C`, the IC50 in assay [16] was > 66.6 µM (inactive).

For `COc1cc2c(cc1F)C(c1ccccc1Cl)=Nc1c(n[nH]c1C)N2` [RG-1530], the results for the Ki in assay [17], in assay [18] and in assay [19] were > 2 µM (inactive), > 7.94 µM (inactive) and 0.0501 µM (active), respectively.
